“And” between values parts separate entries of the source, which are not always exact repeats. Equal entries are not always repeated. Toxic doses and inconclusive results are not listed.
System: CD2F1 mice, L1210 leukemia sc, survival T/C
Assay: NCI In Vivo Anticancer Drug Screen. Data for tumor model L1210 Leukemia (subcutaneous) in CD2F1 (CDF1) mice
Conditions: endpoint: median survival time, higher = longer survival
In short: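 Read-out: survival or tumor size. Value = treated (T) / vehicle control (C). Transplantable tumor in mice.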

[1] = dose: 25.0 mg/kg/injection, schedule: Q01DX009 (ip), vehicle: saline
[2] = dose: 23.0 mg/kg/injection, schedule: Q01DX Z (sc), vehicle: water
[3] = dose: 300.0 mg/kg/injection, schedule: Q01DX Z (sc), vehicle: methylcellulose (MC)

Compound: CC(=O)[C@H]1CC[C@H]2[C@@H]3C[C@H](C)C4=CC(=O)CC[C@]4(C)[C@H]3C(=O)C[C@]12C
- T/C (dose: 20.0 mg/kg/injection, schedule: Q01DX009 (ip), vehicle: saline with Tween-80): 94 % of control
- T/C (dose: 20.0 mg/kg/injection, schedule: Q01DX009 (sc), vehicle: saline with Tween-80): 97 % of control
- T/C (dose: 40.0 mg/kg/injection, schedule: Q01DX009 (ip), vehicle: saline with Tween-80): 93 % of control
- T/C (dose: 40.0 mg/kg/injection, schedule: Q01DX009 (sc), vehicle: saline with Tween-80): 98 % of control
- T/C (dose: 80.0 mg/kg/injection, schedule: Q01DX009 (ip), vehicle: saline with Tween-80): 93 % of control
- T/C (dose: 80.0 mg/kg/injection, schedule: Q01DX009 (sc), vehicle: saline with Tween-80): 101 % of control
- T/C (dose: 160.0 mg/kg/injection, schedule: Q01DX009 (ip), vehicle: saline with Tween-80): 93 % of control
- T/C (dose: 160.0 mg/kg/injection, schedule: Q01DX009 (sc), vehicle: saline with Tween-80): 98 % of control
- T/C (dose: 320.0 mg/kg/injection, schedule: Q01DX009 (ip), vehicle: saline with Tween-80): 96 % of control
- T/C (dose: 320.0 mg/kg/injection, schedule: Q01DX009 (sc), vehicle: saline with Tween-80): 105 % of control
- T/C (dose: 640.0 mg/kg/injection, schedule: Q01DX009 (sc), vehicle: saline with Tween-80): 109 % of control

Compound: CCN(CC)CCNc1ccc(C)c2sc3ccccc3c(=O)c12
- T/C [1]: 116 % of control
- T/C (dose: 100.0 mg/kg/injection, schedule: Q01DX009 (ip), vehicle: saline): 158 % of control
- T/C (dose: 200.0 mg/kg/injection, schedule: Q01DX009 (ip), vehicle: saline): 87 % of control

Compound: NS(=O)(=O)OCCCCCCCOS(N)(=O)=O
- T/C (dose: 30.0 mg/kg/injection, schedule: Q01DX009 (ip), vehicle: saline with Tween-80): 124 % of control
- T/C (dose: 83.3 mg/kg/injection, schedule: Q01DX009 (ip), vehicle: saline with Tween-80): 179 % of control
- T/C (dose: 138.8 mg/kg/injection, schedule: Q01DX009 (ip), vehicle: saline with Tween-80): 118 % of control

Compound: COc1cccc2c1C(=O)c1c(O)c3c(c(O)c1C2=O)C[C@@](O)(C(C)=O)C[C@@H]3OC1CC(N)C(O)C(C)O1 (stereo partly drawn)
- T/C (dose: 0.25 mg/kg/injection, schedule: Q01DX009 (ip), vehicle: saline): 97 % of control and 100 % of control
- T/C (dose: 0.25 mg/kg/injection, schedule: Q01DX009 (sc), vehicle: saline): 98 % of control
- T/C (dose: 0.5 mg/kg/injection, schedule: Q01DX009 (ip), vehicle: saline): 96 % of control and 98 % of control
- T/C (dose: 0.5 mg/kg/injection, schedule: Q01DX009 (sc), vehicle: saline): 104 % of control
- T/C (dose: 1.0 mg/kg/injection, schedule: Q01DX009 (ip), vehicle: saline): 101 % of control and 96 % of control (2×)
- T/C (dose: 1.0 mg/kg/injection, schedule: Q01DX009 (sc), vehicle: saline): 107 % of control
- T/C (dose: 1.5 mg/kg/injection, schedule: Q01DX009 (ip), vehicle: saline): 100 % of control
- T/C (dose: 2.0 mg/kg/injection, schedule: Q01DX009 (ip), vehicle: saline): 101 % of control and 102 % of control and 98 % of control
- T/C (dose: 2.0 mg/kg/injection, schedule: Q01DX009 (sc), vehicle: saline): 109 % of control
- T/C (dose: 3.0 mg/kg/injection, schedule: Q01DX009 (ip), vehicle: saline): 97 % of control
- T/C (dose: 4.0 mg/kg/injection, schedule: Q01DX009 (ip), vehicle: saline): 98 % of control
- T/C (dose: 4.0 mg/kg/injection, schedule: Q01DX009 (sc), vehicle: saline): 120 % of control
- T/C (dose: 16.0 mg/kg/injection, schedule: Q01DX009 (sc), vehicle: saline): 118 % of control
- T/C [2]: 120 % of control

Compound: CC(C)CCNc1ncnc2c1cnn2C
- T/C [2]: 100 % of control
- T/C (dose: 39.0 mg/kg/injection, schedule: Q01DX Z (sc), vehicle: water): 100 % of control
- T/C (dose: 65.0 mg/kg/injection, schedule: Q01DX Z (sc), vehicle: water): 100 % of control
- T/C (dose: 108.0 mg/kg/injection, schedule: Q01DX Z (sc), vehicle: water): 109 % of control
- T/C (dose: 180.0 mg/kg/injection, schedule: Q01DX Z (sc), vehicle: water): 100 % of control

Compound: COc1ccc2c(c1)-c1nn(CCCN(C)C)c3ccc([N+](=O)[O-])c(c13)N2
- T/C (dose: 3.12 mg/kg/injection, schedule: Q01DX009 (ip), vehicle: water): 122 % of control
- T/C (dose: 6.25 mg/kg/injection, schedule: Q01DX009 (ip), vehicle: water): 161 % of control
- T/C (dose: 25.0 mg/kg/injection, schedule: Q01DX009 (ip), vehicle: water): 104 % of control

Compound: C[C@]12CCC(=O)C=C1CC[C@@H]1[C@@H]2[C@@H](O)C[C@@]2(C)[C@H]1CC[C@]2(O)C(=O)CO
- T/C [3]: 115 % of control

Compound: C1CN1c1nc(N2CC2)nc(N2CC2)n1
- T/C (dose: 0.1 mg/kg/injection, schedule: Q01DX009 (ip), vehicle: saline): 110 % of control
- T/C (dose: 0.1 mg/kg/injection, schedule: Q01DX009 (sc), vehicle: saline): 108 % of control
- T/C (dose: 0.2 mg/kg/injection, schedule: Q01DX009 (ip), vehicle: saline): 117 % of control
- T/C (dose: 0.2 mg/kg/injection, schedule: Q01DX009 (sc), vehicle: saline): 118 % of control
- T/C (dose: 0.27 mg/kg/injection, schedule: Q01DX009 (ip), vehicle: saline): 114 % of control
- T/C (dose: 0.27 mg/kg/injection, schedule: Q01DX009 (sc), vehicle: saline): 110 % of control
- T/C (dose: 0.4 mg/kg/injection, schedule: Q01DX009 (ip), vehicle: saline): 151 % of control
- T/C (dose: 0.45 mg/kg/injection, schedule: Q01DX009 (ip), vehicle: saline): 157 % of control
- T/C (dose: 0.45 mg/kg/injection, schedule: Q01DX009 (sc), vehicle: saline): 168 % of control
- T/C (dose: 0.6 mg/kg/injection, schedule: Q01DX009 (ip), vehicle: saline): 184 % of control
- T/C (dose: 0.6 mg/kg/injection, schedule: Q01DX009 (sc), vehicle: saline): 180 % of control
- T/C (dose: 0.8 mg/kg/injection, schedule: Q01DX009 (ip), vehicle: saline): 119 % of control
- T/C (dose: 0.9 mg/kg/injection, schedule: Q01DX009 (ip), vehicle: saline): 101 % of control
- T/C (dose: 0.9 mg/kg/injection, schedule: Q01DX009 (sc), vehicle: saline): 113 % of control

Compound: Cc1ccc(C(=O)Nc2ccc(S(=O)(=O)O)c3cc(S(=O)(=O)O)cc(S(=O)(=O)O)c23)cc1NC(=O)c1cccc(NC(=O)Nc2cccc(C(=O)Nc3cc(C(=O)Nc4ccc(S(=O)(=O)O)c5cc(S(=O)(=O)O)cc(S(=O)(=O)O)c45)ccc3C)c2)c1
- T/C (dose: 10.0 mg/kg/injection, schedule: Q07DX003 (iv), vehicle: water): 97 % of control
- T/C (dose: 20.0 mg/kg/injection, schedule: Q07DX003 (iv), vehicle: water): 96 % of control
- T/C (dose: 40.0 mg/kg/injection, schedule: Q07DX003 (iv), vehicle: water): 100 % of control

Compound: O=c1cnn(C2OC(CO)C(O)C2O)c(=O)[nH]1 (stereo not drawn)
- T/C (dose: 37.5 mg/kg/injection, schedule: Q01DX009 (ip), vehicle: saline): 113 % of control
- T/C (dose: 75.0 mg/kg/injection, schedule: Q01DX009 (ip), vehicle: saline): 120 % of control
- T/C (dose: 250.0 mg/kg/injection, schedule: Q01DX Z (sc), vehicle: saline): 111 % of control
- T/C (dose: 500.0 mg/kg/injection, schedule: Q01DX Z (sc), vehicle: saline): 116 % of control
- T/C (dose: 1000.0 mg/kg/injection, schedule: Q01DX Z (sc), vehicle: saline): 111 % of control
- T/C (dose: 1200.0 mg/kg/injection, schedule: Q01DX009 (ip), vehicle: saline): 103 % of control
- T/C (dose: 1200.0 mg/kg/injection, schedule: Q01DX009 (sc), vehicle: saline): 107 % of control

Compound: Cc1c(-c2ccc(-c3ccccc3F)cc2)nc2ccc(F)cc2c1C(=O)O
- T/C (dose: 12.5 mg/kg/injection, schedule: Q01DX009 (ip), vehicle: saline): 153 % of control
- T/C [1]: 156 % of control
- T/C (dose: 50.0 mg/kg/injection, schedule: Q01DX009 (ip), vehicle: saline): 150 % of control

Compound: CC(=O)OCC(=O)[C@@]1(O)CC[C@H]2[C@@H]3CCC4=CC(=O)CC[C@]4(C)[C@@]3(F)[C@@H](O)C[C@@]21C
- T/C [3]: 121 % of control
- T/C (dose: 500.0 mg/kg/injection, schedule: Q01DX Z (sc), vehicle: methylcellulose (MC)): 115 % of control

Compound: Nc1nc(=S)c2ncn(C3OC(CO)C(O)C3O)c2[nH]1 (stereo not drawn)
- T/C (dose: 6.0 mg/kg/injection, schedule: Q01DX Z (sc), vehicle: other): 177 % of control
- T/C (dose: 10.1 mg/kg/injection, schedule: Q01DX Z (sc), vehicle: other): 183 % of control
- T/C (dose: 16.9 mg/kg/injection, schedule: Q01DX Z (sc), vehicle: other): 155 % of control
- T/C (dose: 28.1 mg/kg/injection, schedule: Q01DX Z (sc), vehicle: other): 161 % of control
- T/C (dose: 46.8 mg/kg/injection, schedule: Q01DX Z (sc), vehicle: other): 155 % of control
- T/C (dose: 65.0 mg/kg/injection, schedule: Q01DX Z (sc), vehicle: other): 123 % of control
- T/C (dose: 108.0 mg/kg/injection, schedule: Q01DX Z (sc), vehicle: other): 123 % of control
- T/C (dose: 180.0 mg/kg/injection, schedule: Q01DX Z (sc), vehicle: other): 114 % of control
- T/C (dose: 300.0 mg/kg/injection, schedule: Q01DX Z (sc), vehicle: other): 104 % of control

Reference: PubChem BioAssay AID258 (DTP/NCI, 2004)
